Test results published in ChEMBL document CHEMBL1201862, “PubChem BioAssay data set” (2004).
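Tested at 5 concentrations; 48 h exposure; 96-well plates; endpoints linearly interpolated, else capped at highest concentration. GI50: concentration for 50% inhibition of growth.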 Active and inactive are the calls of the source. Rule as the data show it: active = GI50 up to about 1.1 µM and inactive = higher.

Tests used:
Assay in all cases: inhibition of tumour cell growth, NCI panel, 48 h
[1] = tested on: SF-268
[2] = tested on: OVCAR-4
[3] = tested on: COLO 205
[4] = tested on: SW-620
[5] = tested on: CCRF-CEM
[6] = tested on: ACHN
[7] = tested on: OVCAR-5
[8] = tested on: SF-539
[9] = tested on: SK-MEL-28
[10] = tested on: MOLT-4
[11] = tested on: NCI-H226
[12] = tested on: HCC 2998
[13] = tested on: SF-295
[14] = tested on: NCI-H522
[15] = tested on: 786-0
[16] = tested on: SK-MEL-2
[17] = tested on: SK-OV-3
[18] = tested on: SNB-75
[19] = tested on: SN12C
[20] = tested on: OVCAR-8

SMILES	GI50 [1]	GI50 [2]	GI50 [3]	GI50 [4]	GI50 [5]	GI50 [6]	GI50 [7]	GI50 [8]	GI50 [9]	GI50 [10]	GI50 [11]	GI50 [12]	GI50 [13]	GI50 [14]	GI50 [15]	GI50 [16]	GI50 [17]	GI50 [18]	GI50 [19]	GI50 [20]
c1ccc(CN2CCC(=NN3CCCCC3)CC2)cc1	88.1 µM (inactive)	> 100 µM (inactive)	28.1 µM (inactive)	> 100 µM (inactive)	31.8 µM (inactive)	> 100 µM (inactive)	> 100 µM (inactive)	> 100 µM (inactive)	> 100 µM (inactive)	39.4 µM (inactive)	> 100 µM (inactive)	51.1 µM (inactive)	> 100 µM (inactive)	54.6 µM (inactive)	> 100 µM (inactive)	> 100 µM (inactive)	> 100 µM (inactive)	61.2 µM (inactive)	> 100 µM (inactive)	65.2 µM (inactive)
O=S1(=O)c2ccccc2NC(c2ccc3ccccc3c2)CC1c1ccccc1F (stereo not given)	> 100 µM (inactive)	> 100 µM (inactive)	> 100 µM (inactive)	> 100 µM (inactive)	> 100 µM (inactive)	> 100 µM (inactive)	> 100 µM (inactive)	> 100 µM (inactive)	> 100 µM (inactive)	> 100 µM (inactive)	> 100 µM (inactive)	> 100 µM (inactive)	> 100 µM (inactive)	> 100 µM (inactive)	> 100 µM (inactive)	> 100 µM (inactive)	> 100 µM (inactive)	> 100 µM (inactive)	> 100 µM (inactive)	> 100 µM (inactive)
CN(C)NC(=S)NC12CC3CC(CC(C3)C1)C2	> 100 µM (inactive)	> 100 µM (inactive)	> 100 µM (inactive)	> 100 µM (inactive)	> 100 µM (inactive)	> 100 µM (inactive)	> 100 µM (inactive)	> 100 µM (inactive)	> 100 µM (inactive)	> 100 µM (inactive)	> 100 µM (inactive)	> 100 µM (inactive)	> 100 µM (inactive)	> 100 µM (inactive)	> 100 µM (inactive)	> 100 µM (inactive)	> 100 µM (inactive)	> 100 µM (inactive)	> 100 µM (inactive)	> 100 µM (inactive)
COc1ccc(NC(=O)CC(=O)N2N=C(N(CCC#N)c3cccc(C)c3)CC2c2ccccc2)cc1 (stereo not given)	> 100 µM (inactive)	> 100 µM (inactive)	> 100 µM (inactive)	> 100 µM (inactive)	> 100 µM (inactive)	> 100 µM (inactive)	> 100 µM (inactive)	> 100 µM (inactive)	> 100 µM (inactive)	> 100 µM (inactive)	> 100 µM (inactive)	> 100 µM (inactive)	> 100 µM (inactive)	> 100 µM (inactive)	> 100 µM (inactive)	> 100 µM (inactive)	> 100 µM (inactive)	> 100 µM (inactive)	> 100 µM (inactive)	> 100 µM (inactive)
Clc1ccc(C2=NOC(C3CCCCC3)C2)cc1 (stereo not given)	> 100 µM (inactive)	> 100 µM (inactive)	> 100 µM (inactive)	> 100 µM (inactive)	> 100 µM (inactive)	> 100 µM (inactive)	> 100 µM (inactive)	> 100 µM (inactive)	> 100 µM (inactive)	> 100 µM (inactive)	> 100 µM (inactive)	> 100 µM (inactive)	> 100 µM (inactive)	> 100 µM (inactive)	> 100 µM (inactive)	> 100 µM (inactive)	> 100 µM (inactive)	> 100 µM (inactive)	> 100 µM (inactive)	> 100 µM (inactive)
Brc1c2c(c(Br)c3nsnc13)N=S=N2	26.3 µM (inactive)	23.1 µM (inactive)	41.5 µM (inactive)	29 µM (inactive)	2.65 µM (inactive)	24.7 µM (inactive)	27.6 µM (inactive)	22.7 µM (inactive)	37.5 µM (inactive)	17.9 µM (inactive)	> 46.9 µM (inactive)	> 58.6 µM (inactive)	27.1 µM (inactive)	23.4 µM (inactive)	15.6 µM (inactive)	20 µM (inactive)	46.2 µM (inactive)	25.1 µM (inactive)	17.4 µM (inactive)	25.6 µM (inactive)
COC(=O)[C@@H]1CN(C(=O)c2ccccc2)C(=O)N1C(=O)OCc1ccccc1	> 100 µM (inactive)	> 100 µM (inactive)	> 100 µM (inactive)	> 100 µM (inactive)	> 100 µM (inactive)	> 100 µM (inactive)	> 100 µM (inactive)	> 100 µM (inactive)	> 100 µM (inactive)	> 100 µM (inactive)	> 100 µM (inactive)	> 100 µM (inactive)	> 100 µM (inactive)	> 100 µM (inactive)	> 100 µM (inactive)	> 100 µM (inactive)	> 100 µM (inactive)	> 100 µM (inactive)	> 100 µM (inactive)	> 100 µM (inactive)
Cc1cc(N(CCC#N)CCC#N)ccc1/C=C1N=C(/C=C\c2ccccc2)N(c2ccc(Cl)cc2)C\1=O	> 22 µM (inactive)	> 39.4 µM (inactive)	0.745 µM (active)	11.6 µM (inactive)	3.4 µM (inactive)	8.32 µM (inactive)	22.2 µM (inactive)	6.71 µM (inactive)	5.46 µM (inactive)	25 µM (inactive)	> 100 µM (inactive)	1.81 µM (inactive)	4.57 µM (inactive)	24.7 µM (inactive)	54.8 µM (inactive)	> 54.8 µM (inactive)	> 87.1 µM (inactive)	> 100 µM (inactive)	> 45 µM (inactive)	> 40.8 µM (inactive)
CCOC(=O)CC1C(O)C(=O)N(C)C1c1ccccc1 (stereo not given)	> 100 µM (inactive)	> 100 µM (inactive)	> 100 µM (inactive)	> 100 µM (inactive)	> 100 µM (inactive)	> 100 µM (inactive)	> 100 µM (inactive)	> 100 µM (inactive)	> 100 µM (inactive)	> 100 µM (inactive)	> 100 µM (inactive)	> 100 µM (inactive)	> 100 µM (inactive)	> 100 µM (inactive)	> 100 µM (inactive)	> 100 µM (inactive)	> 100 µM (inactive)	> 100 µM (inactive)	> 100 µM (inactive)	> 100 µM (inactive)
Cc1cc2c(cc1Cl)SSc1cc(Cl)c(C)cc1S(=O)(=O)Nc1nc(N)nn1C(O)n1nc(N)nc1NS2(=O)=O	> 10 µM (inactive)	> 10 µM (inactive)	> 10 µM (inactive)	> 10 µM (inactive)	> 10 µM (inactive)	> 10 µM (inactive)	> 10 µM (inactive)	> 10 µM (inactive)	> 10 µM (inactive)	> 10 µM (inactive)	> 10 µM (inactive)	> 10 µM (inactive)	> 10 µM (inactive)	> 10 µM (inactive)	> 10 µM (inactive)	> 10 µM (inactive)	> 10 µM (inactive)	> 10 µM (inactive)	> 10 µM (inactive)	> 10 µM (inactive)
O=C1CCCc2c(O)ccc(O)c21	48.5 µM (inactive)	> 100 µM (inactive)	> 100 µM (inactive)	61.2 µM (inactive)	19.1 µM (inactive)	> 100 µM (inactive)	> 100 µM (inactive)	> 100 µM (inactive)	> 100 µM (inactive)	27.9 µM (inactive)	> 100 µM (inactive)	> 100 µM (inactive)	> 100 µM (inactive)	12.6 µM (inactive)	> 100 µM (inactive)	> 100 µM (inactive)	> 100 µM (inactive)	38.5 µM (inactive)	> 100 µM (inactive)	> 100 µM (inactive)
CC(C)(C)OC(=O)N1CCC2(C)CC(=O)CC=C12 (stereo not given)	> 100 µM (inactive)	> 100 µM (inactive)	> 100 µM (inactive)	67 µM (inactive)	27.2 µM (inactive)	> 100 µM (inactive)	> 100 µM (inactive)	> 100 µM (inactive)	> 100 µM (inactive)	> 100 µM (inactive)	> 100 µM (inactive)	> 100 µM (inactive)	> 100 µM (inactive)	45.4 µM (inactive)	> 100 µM (inactive)	> 100 µM (inactive)	> 100 µM (inactive)	> 100 µM (inactive)	> 100 µM (inactive)	> 100 µM (inactive)
C=CCCCCNC(=O)C[C@@H]1C2=C(CC[C@H]1O[Si](C)(C)C(C)(C)C)N1C(=O)CCC/C=C\C1C2 (stereo not given in full)	15.5 µM (inactive)	12.2 µM (inactive)	13.6 µM (inactive)	13.6 µM (inactive)	10.6 µM (inactive)	15.4 µM (inactive)	16 µM (inactive)	17.5 µM (inactive)	15 µM (inactive)	5.89 µM (inactive)	15.5 µM (inactive)	10.4 µM (inactive)	14.9 µM (inactive)	11.7 µM (inactive)	15.4 µM (inactive)	13.2 µM (inactive)	16.6 µM (inactive)	16.4 µM (inactive)	15.4 µM (inactive)	14.9 µM (inactive)
